Drawing on US12503453B2, “USP7 inhibition” (Dana-Farber Cancer Institute, Inc., priority 2018, dated 2025), this text covers IC50 for 46 compounds.

full length USP7, sequence (Q93009 whole entry): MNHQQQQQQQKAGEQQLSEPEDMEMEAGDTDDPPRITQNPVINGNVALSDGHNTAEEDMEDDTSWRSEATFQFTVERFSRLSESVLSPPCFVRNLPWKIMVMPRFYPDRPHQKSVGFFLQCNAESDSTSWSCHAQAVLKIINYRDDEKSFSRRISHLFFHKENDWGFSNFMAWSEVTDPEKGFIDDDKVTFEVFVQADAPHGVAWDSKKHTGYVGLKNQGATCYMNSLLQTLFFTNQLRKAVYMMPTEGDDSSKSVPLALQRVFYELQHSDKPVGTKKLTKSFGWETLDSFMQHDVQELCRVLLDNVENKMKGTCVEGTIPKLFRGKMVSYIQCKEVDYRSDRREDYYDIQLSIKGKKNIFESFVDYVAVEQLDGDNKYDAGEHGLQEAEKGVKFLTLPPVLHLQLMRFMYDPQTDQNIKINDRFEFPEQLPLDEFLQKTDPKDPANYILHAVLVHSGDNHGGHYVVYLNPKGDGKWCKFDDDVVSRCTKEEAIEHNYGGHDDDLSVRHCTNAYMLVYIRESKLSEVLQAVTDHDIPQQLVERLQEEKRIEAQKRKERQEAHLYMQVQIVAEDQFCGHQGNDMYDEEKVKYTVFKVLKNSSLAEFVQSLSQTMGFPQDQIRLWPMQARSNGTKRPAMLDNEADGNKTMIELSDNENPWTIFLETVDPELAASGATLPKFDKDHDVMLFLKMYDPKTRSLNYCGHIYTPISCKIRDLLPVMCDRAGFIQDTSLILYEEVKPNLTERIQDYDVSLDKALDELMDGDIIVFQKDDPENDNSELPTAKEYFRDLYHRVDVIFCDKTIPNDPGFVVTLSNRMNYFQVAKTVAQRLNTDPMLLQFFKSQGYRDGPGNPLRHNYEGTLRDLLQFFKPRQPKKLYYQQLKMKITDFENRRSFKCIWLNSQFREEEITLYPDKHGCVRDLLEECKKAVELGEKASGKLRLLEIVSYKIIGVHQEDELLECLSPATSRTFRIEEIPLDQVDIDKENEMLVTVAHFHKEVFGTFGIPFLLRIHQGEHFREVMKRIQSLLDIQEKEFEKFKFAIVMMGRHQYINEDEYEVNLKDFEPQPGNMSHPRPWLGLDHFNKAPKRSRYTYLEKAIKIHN

One experiment addresses full length USP7 (Homo sapiens (Human), UniProt Q93009). The experiment is described as follows: Ub-AMC enzymatic assay with full-length USP7. Type of experiment: biochemical. The following applies: Table 1; 6 hours pre-incubation, Ub-AMC; read-out: IC50 (nM), USP7 activity in USP7 assay. The protocol:
Both constructs were overexpressed in E. coli BL21 (DE3). Cells were grown at 37° C. to an OD of 0.9, cooled to 16° C., induced with 500 μM isopropyl-1-thio-D-galactopyranoside (IPTG), incubated overnight at 16° C., collected by centrifugation, and stored at −80° C. Cell pellets were sonicated in lysis buffer (25 mM Tris pH 8, 1 M NaCl, and 10 mM BME) supplemented with 10 μg/ml phenylmethanesulfonylfluoride (PMSF) and the resulting lysate was centrifuged at 30,000×g for 40 min. Ni-NTA beads (Qiagen) were mixed with lysate supernatant for 2 hours, and washed with lysis buffer supplemented with 25 mM imidazole. The bound protein was eluted with lysis buffer supplemented with 300 mM imidazole. The sample was then concentrated to 1 ml (30 kDa concentrator; Amicon Ultra, Millipore), and run on a Superdex 200 (GE healthcare) in buffer containing 25 mM HEPES pH 7.5, 200 mM NaCl, and 1 mM DTT. Fractions were pooled, concentrated and frozen at −80° C.
Full length USP7 was tested for its activity in Ubiquitin-AMC assay in presence or absence of inhibitors. USP7 (5 nM) was pre-incubated for 6 hours at room temperature with different concentrations of inhibitors or DMSO as a control in 50 mM HEPES pH 7.5, 0.5 mM EDTA, 11 μM ovalbumin, and 5 mM DTT. Ubiquitin-AMC (Boston Biochem) was then added to a final concentration of 500 nM. The initial rate of the reaction was measured by collecting fluorescence data at one minute intervals over 30-minute period using a Clariostar fluorescence plate reader at excitation and emission wavelength of 345 and 445 nm respectively. The calculated initial rate values were plotted against inhibitor concentrations to determine IC50s. All the experimental data were plotted using Prism GraphPad. All assays for each compound were performed at least twice for each compound.
With `CN1CCN(CCC(=O)Nc2ccc3c(=O)n(CC4(O)CCN(C(=O)C(CCCNC(=O)C5(C#N)CC5)Cc5ccccc5)CC4)cnc3c2)CC1` (stereo not shown), the IC50 – broadly, the point on the concentration scale where inhibition reaches its midpoint – lay within 100 to 1000 nM. For the compound `CC(C)NC(=O)/C=C/c1ccc(C(=O)NCCC[C@@H](Cc2ccccc2)C(=O)N2CCC(O)(Cn3cnc4cc(NC(=O)CCN5CCOCC5)ccc4c3=O)CC2)cn1`, the IC50 is over 1000 nM. `CN1CCN(CCC(=O)Nc2ccc3c(=O)n(CC4(O)CCN(C(=O)CCNC(=O)c5ccc6c(Cl)c7c(nc6c5)CCCC7)CC4)cnc3c2)CC1`: the IC50 was 100 to 1000 nM. As to `O=C(CCN1CCOCC1)Nc1ccc2c(=O)n(CC3(O)CCN(C(=O)[C@H](Cc4cc(F)cc(F)c4)NC(=O)CNC(=O)c4ccc5c(Cl)c6c(nc5c4)CCCC6)CC3)cnc2c1`, the concentration for half-maximal inhibition (IC50) is under 20 nM.

On to `CN1CCN(CCC(=O)Nc2ccc3c(=O)n(CC4(O)CCN(C(=O)C(CCCNC(=O)c5ccc6c(Cl)c7c(nc6c5)CCCC7)Cc5ccccc5)CC4)cnc3c2)CC1` (stereo not shown), for which the IC50 is under 20 nM. With `CN1CCN(CCC(=O)Nc2ccc3c(=O)n(CC4(O)CCN(C(=O)C(CCCNC(=O)c5ccc6c(Cl)c7c(nc6c5)CCC7)Cc5ccccc5)CC4)cnc3c2)CC1` (stereo not shown), the IC50 is under 20 nM. On the same count and under the same terms, the figure for `CN1CCN(CCC(=O)Nc2ccc3c(=O)n(CC4(O)CCN(C(=O)CCCCNC(=O)c5ccc6c(Cl)c7c(nc6c5)CCCC7)CC4)cnc3c2)CC1` [drawing 141] is 20 to 100 nM; for `O=C(CCN1CCOCC1)Nc1ccc2c(=O)n(CC3(O)CCN(C(=O)[C@H](CC4CCCCC4)NC(=O)CNC(=O)c4ccc5c(Cl)c6c(nc5c4)CCCC6)CC3)cnc2c1` it is under 20 nM. On to `CN1CCN(CCC(=O)Nc2ccc3c(=O)n(CC4(O)CCN(C(=O)C(CCCNC(=O)c5cnccc5Cl)Cc5ccccc5)CC4)cnc3c2)CC1` (stereo not shown), for which the IC50 was over 1000 nM. On the same count and under the same terms, the figure for `CN1CCN(CCC(=O)Nc2ccc3c(=O)n(CC4(O)CCN(C(=O)C(CCCNC(=O)c5ccc6c(Cl)c7c(nc6c5)CCCCC7)Cc5ccccc5)CC4)cnc3c2)CC1` (stereo not shown) is under 20 nM; for `CN1CCN(CCC(=O)Nc2ccc3c(=O)n(CC4(O)CCN(C(=O)CCCNC(=O)c5ccc6c(Cl)c7c(nc6c5)CCCC7)CC4)cnc3c2)CC1` it is 20 to 100 nM. In the case of `O=C(CCN1CCOCC1)Nc1ccc2c(=O)n(CC3(O)CCN(C(=O)[C@@H](CCCNC(=O)c4ccc(/C=C/C(=O)N5CCCCC5)nc4)Cc4ccccc4)CC3)cnc2c1`, the IC50 was over 1000 nM. As for `CN1CCN(CCC(=O)Nc2ccc3c(=O)n(CC4(O)CCN(C(=O)[C@@H](CCCNC(=O)c5ccc6c(Cl)c7c(nc6c5)CCCC7)Cc5ccccc5)CC4)cnc3c2)CC1` [drawing 146], the IC50 is under 20 nM. Regarding `CN1CCN(CCC(=O)Nc2ccc3c(=O)n(CC4(O)CCN(C(=O)CCCCCNC(=O)c5ccc6nc7c(c(Cl)c6c5)CCCC7)CC4)cnc3c2)CC1`, the IC50 lay in the range of 20 to 100 nM. As to `O=C(CCN1CCOCC1)Nc1ccc2c(=O)n(CC3(O)CCN(C(=O)CCCCNC(=O)c4ccc5c(Cl)c6c(nc5c4)CCCC6)CC3)cnc2c1`, the IC50 was 100 to 1000 nM. Still for that read-out and setting: the figure for `O=C(CCN1CCOCC1)Nc1ccc2c(=O)n(CC3(O)CCN(C(=O)[C@H](Cc4c[nH]cn4)NC(=O)CNC(=O)c4ccc5c(Cl)c6c(nc5c4)CCCC6)CC3)cnc2c1` is under 20 nM; for `O=C(NCCC[C@@H](Cc1ccccc1)C(=O)N1CCC(O)(Cn2cnc3cc(N4CCOCC4)ccc3c2=O)CC1)c1ccc2c(Cl)c3c(nc2c1)CCCC3` it is 100 to 1000 nM; for `CN(C)CCC(=O)Nc1ccc2c(=O)n(CC3(O)CCN(C(=O)CCCCNC(=O)c4ccc5c(Cl)c6c(nc5c4)CCCC6)CC3)cnc2c1` it is 20 to 100 nM. As to `CN1CCN(CCC(=O)Nc2ccc3c(=O)n(CC4CCN(C(=O)C(CCCNC(=O)c5ccc6c(Cl)c7c(nc6c5)CCCC7)Cc5ccccc5)CC4)cnc3c2)CC1` (stereo not shown), the IC50 was over 1000 nM. As for `CN1CCN(CCC(=O)Nc2ccc3c(=O)n(CC4(O)CCN(C(=O)[C@H](Cc5ccccc5)NC(=O)CCNC(=O)c5ccc6c(Cl)c7c(nc6c5)CCCC7)CC4)cnc3c2)CC1`, the IC50 was under 20 nM. Turning to `CN1CCN(CCC(=O)Nc2ccc3c(=O)n(CC4(O)CCN(C(=O)[C@H](CCCNC(=O)c5ccc6c(Cl)c7c(nc6c5)CCCC7)Cc5ccccc5)CC4)cnc3c2)CC1` [drawing 147], the IC50 is 100 to 1000 nM. As for `CN1CCN(CCC(=O)Nc2ccc3c(=O)n(CC4(O)CCN(C(=O)CNC(=O)c5ccc6c(Cl)c7c(nc6c5)CCCC7)CC4)cnc3c2)CC1`, the IC50 was over 1000 nM. On to `CN1CCN(CCC(=O)Nc2ccc3c(=O)n(CC4(O)CCN(C(=O)[C@H](Cc5ccccc5)NC(=O)CN(C)C(=O)c5ccc6c(Cl)c7c(nc6c5)CCCC7)CC4)cnc3c2)CC1`, for which the IC50 is under 20 nM. `CN1CCN(CCC(=O)Nc2ccc3c(=O)n(CC4(O)CCN(C(=O)[C@H](Cc5ccccc5)NC(=O)CNC(=O)c5ccc6c(Cl)c7c(nc6c5)CCCC7)CC4)cnc3c2)CC1`: the IC50 is under 20 nM. Turning to `O=C(CCN1CCOCC1)Nc1ccc2c(=O)n(CC3(O)CCN(C(=O)[C@H](Cc4cscn4)NC(=O)CNC(=O)c4ccc5c(Cl)c6c(nc5c4)CCCC6)CC3)cnc2c1`, the IC50 is under 20 nM. For `CN1CCN(CCC(=O)Nc2ccc3c(=O)n(CC4(O)CCN(C(=O)C(CCNC(=O)c5ccc6c(Cl)c7c(nc6c5)CCCC7)Cc5ccccc5)CC4)cnc3c2)CC1` (stereo not shown), the IC50 was under 20 nM.

Staying with this experiment, now noted: Table 2; 6 hours pre-incubation, Ub-AMC; read-out: IC50 (μM), USP7 activity in USP7 assay.
With `C=CS(=O)(=O)NCCCC(Cc1ccccc1)C(=O)N1CCC(O)(Cn2cnc3cc(NC(=O)CCN4CCN(C)CC4)ccc3c2=O)CC1` (stereo not shown), the IC50 fell in the range of 20 to 100 nM. For the compound `CN1CCN(CCC(=O)Nc2ccc3c(=O)n(CC4(O)CCN(C(=O)C(CCCNC(=O)c5ccc6cc7c(nc6c5)CCCC7)Cc5ccccc5)CC4)cnc3c2)CC1` (stereo not shown) [drawing 180], the IC50 was in the range of 100 to 1000 nM. For the compound `O=C(CCN1CCN(C(=O)c2ccc3c(Cl)c4c(nc3c2)CCCC4)CC1)N1CCC(O)(Cn2cnc3cc(Cl)ccc3c2=O)CC1`, the IC50 fell in the range of 100 to 1000 nM. Consider `C=CC(=O)NCCCC(Cc1ccccc1)C(=O)N1CCC(O)(Cn2cnc3cc(NC(=O)CCN4CCN(C)CC4)ccc3c2=O)CC1` (stereo not shown), for which the IC50 is under 20 nM.

`O=C(CN1CCN(C(=O)c2ccc3c(Cl)c4c(nc3c2)CCCC4)CC1)N1CCC(O)(Cn2cnc3cc(Cl)ccc3c2=O)CC1`: the IC50 is 20 to 100 nM.

The same experiment, now with this note: Table 3; 6 hours pre-incubation, Ub-AMC; read-out: IC50 (μM), USP7 activity in USP7 assay.
With `C=CC(=O)Nc1ccccc1-c1cn([C@@H](Cc2ccccc2)C(=O)N2CCC(O)(Cn3cnc4cc(NC(=O)CCN5CCOCC5)ccc4c3=O)CC2)nn1`, the IC50 is over 1000 nM.

As to `O=C(CCN1CCOCC1)Nc1ccc2c(=O)n(CC3(O)CCN(C(=O)C(CCCNC(=O)c4ccc5c(Cl)c6c(nc5c4)CCCC6)Cc4ccc(F)cc4F)CC3)cnc2c1` (stereo not shown), the IC50 was 20 to 100 nM. Consider `COc1cccc(CC(CCCNC(=O)c2ccc3c(Cl)c4c(nc3c2)CCCC4)C(=O)N2CCC(O)(Cn3cnc4cc(NC(=O)CCN5CCN(C)CC5)ccc4c3=O)CC2)c1` (stereo not shown), for which the IC50 was over 1000 nM. `O=C(NCCCC(Cc1ccccc1)C(=O)N1CCC(O)(Cn2cnc3cc(OCCN4CCOCC4)ccc3c2=O)CC1)c1ccc2c(Cl)c3c(nc2c1)CCCC3` (stereo not shown): the IC50 fell in the range of 20 to 100 nM.

Consider `CN1CCN(CCC(=O)Nc2ccc3c(=O)n(CC4(O)CCN(C(=O)C(CCCNC(=O)c5ccc6c(Cl)cc(C7CCCCC7)nc6c5)Cc5ccccc5)CC4)cnc3c2)CC1` (stereo not shown), for which the IC50 fell in the range of 20 to 100 nM.

For `CN1CCN(CCC(=O)Nc2ccc3c(=O)n(CC4(O)CCN(C(=O)C(CCCNC(=O)c5ccc6c(Cl)cc(-c7cscn7)nc6c5)Cc5ccccc5)CC4)cnc3c2)CC1` (stereo not shown), the IC50 is 20 to 100 nM. Turning to `O=C(CCN1CCOCC1)Nc1ccc2c(=O)n(CC3(O)CCN(C(=O)C(CCCNC(=O)c4ccc5c(O)ccnc5c4)Cc4ccccc4)CC3)cnc2c1` (stereo not shown), the IC50 is over 1000 nM. On the same count and under the same terms, in the case of `CN1CCN(CCC(=O)Nc2ccc3c(=O)n(CC4(O)CCN(C(=O)C(CCCNC(=O)c5ccc6c(Cl)cc(-c7ccccc7)nc6c5)Cc5ccccc5)CC4)cnc3c2)CC1` (stereo not shown) it was 100 to 1000 nM; in that of `CN1CCN(CCC(=O)Nc2ccc3c(=O)n(CC4(O)CCN(C(=O)C(CCCNC(=O)c5ccc6c(Cl)c7c(nc6c5)CCCC7)c5ccccc5)CC4)cnc3c2)CC1` (stereo not shown), over 1000 nM. `O=C(CCN1CCOCC1)Nc1ccc2c(=O)n(CC3(O)CCN(C(=O)[C@H](Cc4ccccc4)NC(=O)COc4cccc5c(Cl)c6c(nc45)CCCC6)CC3)cnc2c1`: the IC50 lay within 20 to 100 nM. Consider `O=C(CCN1CCOCC1)Nc1ccc2c(=O)n(CC3(O)CCN(C(=O)C(CCCNC(=O)c4ccc5c(Cl)cc(C(F)(F)F)nc5c4)Cc4ccccc4)CC3)cnc2c1` (stereo not shown), for which the IC50 is 100 to 1000 nM. Consider `CN1CCN(CCC(=O)Nc2ccc3c(=O)n(CC4(O)CCN(C(=O)C(CCCNC(=O)c5ccc6c(Cl)cc(-c7ccc(F)cc7)nc6c5)Cc5ccccc5)CC4)cnc3c2)CC1` (stereo not shown), for which the IC50 fell in the range of 20 to 100 nM. Same read-out and setting: in the case of `O=C(NCCC[C@@H](Cc1ccccc1)C(=O)N1CCC(O)(Cn2cnc3c(N4CCOCC4)cccc3c2=O)CC1)c1ccc2c(Cl)c3c(nc2c1)CCCC3` it was 20 to 100 nM; in that of `CN1CCN(c2cccc3c(=O)n(CC4(O)CCN(C(=O)[C@@H](CCCNC(=O)c5ccc6c(Cl)c7c(nc6c5)CCCC7)Cc5ccccc5)CC4)cnc23)CC1`, 20 to 100 nM. Regarding `Cc1cc(Cl)c2ccc(C(=O)NCCCC(Cc3ccccc3)C(=O)N3CCC(O)(Cn4cnc5cc(NC(=O)CCN6CCOCC6)ccc5c4=O)CC3)cc2n1` (stereo not shown), the IC50 was over 1000 nM.
